According to patent US20080031967A1, “Compositions, products and methods for controlling weight in a mammal” (priority 2005, published 2008):

Assays:
primary rat adipocytes [1] = experiment: thermogenesis assay: oxygen consumption by adipocytes (oxygen probe); format: cell-based; conditions: fatty acid oxidation inhibitors
Method: Thermogenesis was measured using an oxygen probe to monitor oxygen consumption by the adipocytes as they oxidize fatty acids. This assay was developed in primary rat adipocytes (isolated as above) using a YSI 5300 monitor equipped with oxygen-sensitive electrodes in an 8-chamber air tight apparatus. […] Since oxygen consumption can be induced by both the Kreb's cycle (glucose metabolism) and β-oxidation (fatty acid metabolism), fatty acid oxidation inhibitors were used to test whether the increase in oxygen consumption is indeed induced by fatty acid oxidation. Valproic acid inhibits the entry of fatty acid into the mitochondria and 4-pentenoic acid inhibits β-ketothiolase (the enzyme in the last step of β-oxidation). […] It has been discovered that the use of the above-listed thermogenic agents in accordance with the present invention results in the effective modulation of thermogenesis in mammals. By “effective,” it is meant that administration of the thermogenic agents of the present invention results in a 10 to 15% increase in thermogenic activity in the in vitro oxygen consumption assay. Without wishing to be bound by theory, it is believed that the thermogenic agents of the present invention function by increasing the rate at which fatty acids are transported into the mitochondria and oxidized in the cell.

primary rat adipocytes [2] = conditions: validation compound, stated as known; cited from earlier work
isolated rat adipocytes = conditions: dissolved oxygen monitor; cited from earlier work

Compound | effect on oxygen consumption induced by norepinephrine (primary rat adipocytes [1]) | also measured
C=CCCC(=O)O [4-pentenoic acid] | inhibit oxygen consumption induced by norepinephrine | –
CCCC(CCC)C(=O)O [Valproic acid] | inhibit oxygen consumption induced by norepinephrine | –
NC[C@H](O)c1ccc(O)c(O)c1 [norepinephrine] | – | effect on rate of fatty acid oxidation and oxygen consumption (primary rat adipocytes [2]): increase the rate of fatty acid oxidation and oxygen consumption
leptin: adipocyte-derived hormone | – | effect on beta-oxidation in adipocytes (isolated rat adipocytes): stimulates beta-oxidation
